# Activity calls are given as the source filed them. The rule behind the calls is not given here.
# What was measured:
# [1] = system: Mus musculus; experiment: Anticonvulsant activity in Mus musculus CF1 albino (mouse) assessed as protection against maximal electroshock-induced seizures at 300 mg/kg, ip measured at 4 hr; assay type: functional, organism-based; parameters: dose 300 mg/kg
# [2] = system: Mus musculus; experiment: Anticonvulsant activity in Mus musculus CF1 albino (mouse) assessed as protection against electrically-induced seizure at 100 mg/kg, ip measured at 4 hr by 6Hz psychomotor seizure test; assay type: functional, organism-based; parameters: dose 100 mg/kg
# [3] = Protective index, ratio of TD50 for neurotoxicity in ip dosed Mus musculus CF1 albino (mouse) to ED50 for protection against maximal electroshock-induced seizures in ip dosed Mus musculus CF1 albino (mouse); assay type: toxicity, organism-based; settings: in vivo, read-out: Ratio TD50/ED50
# [4] = Protective index, ratio of TD50 for neurotoxicity in ip dosed Mus musculus CF1 albino (mouse) to ED50 for protection against subcutaneous metrazol-induced seizures in ip dosed Mus musculus CF1 albino (mouse); assay type: toxicity, organism-based; settings: in vivo, read-out: Ratio TD50/ED50
# [5] = system: Mus musculus; experiment: Neurotoxicity in Mus musculus CF1 albino (mouse) assessed as minimal motor impairment at 100 mg/kg, ip measured at 4 hr by rotorod test; assay type: toxicity, organism-based; parameters: dose 100 mg/kg, route intraperitoneal; settings: in vivo
# [6] = system: Mus musculus; experiment: Anticonvulsant activity in ip dosed Mus musculus CF1 albino (mouse) assessed as protection against maximal electroshock-induced seizures measured at 0.25 hr; assay type: functional
# [7] = system: Mus musculus; experiment: Anticonvulsant activity in Mus musculus CF1 albino (mouse) assessed as protection against subcutaneous metrazol-induced seizures at 300 mg/kg, ip measured at 0.5 hr; assay type: functional, organism-based; parameters: dose 300 mg/kg
# [8] = system: Mus musculus; experiment: Anticonvulsant activity in Mus musculus CF1 albino (mouse) assessed as protection against electrically-induced seizure at 100 mg/kg, ip measured at 2 hr by 6Hz psychomotor seizure test; assay type: functional, organism-based; parameters: dose 100 mg/kg
# [9] = system: Mus musculus; experiment: Neurotoxicity in Mus musculus CF1 albino (mouse) assessed as minimal motor impairment at 300 mg/kg, ip measured at 0.5 hr by rotorod test; assay type: toxicity, organism-based; parameters: dose 300 mg/kg, route intraperitoneal; settings: in vivo
# [10] = system: Mus musculus; experiment: Neurotoxicity in Mus musculus CF1 albino (mouse) assessed as minimal motor impairment at 30 mg/kg, ip measured at 4 hr by rotorod test; assay type: toxicity, organism-based; parameters: dose 30 mg/kg, route intraperitoneal; settings: in vivo
# [11] = system: Mus musculus; experiment: Neurotoxicity in Mus musculus CF1 albino (mouse) assessed as minimal motor impairment at 300 mg/kg, ip measured at 4 hr by rotorod test; assay type: toxicity, organism-based; parameters: dose 300 mg/kg, route intraperitoneal; settings: in vivo
# [12] = system: Mus musculus; experiment: Anticonvulsant activity in Mus musculus CF1 albino (mouse) assessed as protection against maximal electroshock-induced seizures at 30 mg/kg, ip measured at 4 hr; assay type: functional, organism-based; parameters: dose 30 mg/kg
# [13] = system: Mus musculus; experiment: Anticonvulsant activity in Mus musculus CF1 albino (mouse) assessed as protection against subcutaneous metrazol-induced seizures at 100 mg/kg, ip measured at 4 hr; assay type: functional, organism-based; parameters: dose 100 mg/kg
# [14] = system: Mus musculus; experiment: Anticonvulsant activity in Mus musculus CF1 albino (mouse) assessed as protection against subcutaneous metrazol-induced seizures at 30 mg/kg, ip measured at 0.5 hr; assay type: functional, organism-based; parameters: dose 30 mg/kg
# [15] = system: Mus musculus; experiment: Neurotoxicity in Mus musculus CF1 albino (mouse) assessed as minimal motor impairment at 100 mg/kg, ip measured at 0.5 hr by rotorod test; assay type: toxicity, organism-based; parameters: dose 100 mg/kg, route intraperitoneal; settings: in vivo
# [16] = system: Mus musculus; experiment: Anticonvulsant activity in ip dosed Mus musculus CF1 albino (mouse) assessed as protection against subcutaneous metrazol-induced seizures measured at 0.25 hr; assay type: functional
# [17] = system: Mus musculus; experiment: Anticonvulsant activity in Mus musculus CF1 albino (mouse) assessed as protection against maximal electroshock-induced seizures at 300 mg/kg, ip measured at 0.5 hr; assay type: functional, organism-based; parameters: dose 300 mg/kg
# [18] = system: Mus musculus; experiment: Anticonvulsant activity in Mus musculus CF1 albino (mouse) assessed as protection against maximal electroshock-induced seizures at 30 mg/kg, ip measured at 0.5 hr; assay type: functional, organism-based; parameters: dose 30 mg/kg
# [19] = system: Mus musculus; experiment: Neurotoxicity in Mus musculus CF1 albino (mouse) assessed as minimal motor impairment at 30 mg/kg, ip measured at 0.5 hr by rotorod test; assay type: toxicity, organism-based; parameters: dose 30 mg/kg, route intraperitoneal; settings: in vivo
# [20] = system: Mus musculus; experiment: Anticonvulsant activity in Mus musculus CF1 albino (mouse) assessed as protection against subcutaneous metrazol-induced seizures at 300 mg/kg, ip measured at 4 hr; assay type: functional, organism-based; parameters: dose 300 mg/kg
# [21] = system: Mus musculus; experiment: Anticonvulsant activity in Mus musculus CF1 albino (mouse) assessed as protection against subcutaneous metrazol-induced seizures at 30 mg/kg, ip measured at 4 hr; assay type: functional, organism-based; parameters: dose 30 mg/kg
# [22] = system: Mus musculus; experiment: Anticonvulsant activity in Mus musculus CF1 albino (mouse) assessed as protection against maximal electroshock-induced seizures at 100 mg/kg, ip measured at 0.5 hr; assay type: functional, organism-based; parameters: dose 100 mg/kg
# [23] = system: Mus musculus; experiment: Anticonvulsant activity in Mus musculus CF1 albino (mouse) assessed as protection against subcutaneous metrazol-induced seizures at 100 mg/kg, ip measured at 0.5 hr; assay type: functional, organism-based; parameters: dose 100 mg/kg
# [24] = system: Mus musculus; experiment: Anticonvulsant activity in Mus musculus CF1 albino (mouse) assessed as protection against electrically-induced seizure at 100 mg/kg, ip measured at 0.25 hr by 6Hz psychomotor seizure test; assay type: functional, organism-based; parameters: dose 100 mg/kg
# [25] = system: Mus musculus; experiment: Anticonvulsant activity in ip dosed Mus musculus CF1 albino (mouse) assessed as protection against electrically-induced seizure measured at 0.25 hr by 6Hz psychomotor seizure test; assay type: functional
# [26] = system: Mus musculus; experiment: Anticonvulsant activity in Mus musculus CF1 albino (mouse) assessed as protection against electrically-induced seizure at 100 mg/kg, ip measured at 1 hr by 6Hz psychomotor seizure test; assay type: functional, organism-based; parameters: dose 100 mg/kg
# [27] = system: Mus musculus; experiment: Anticonvulsant activity in Mus musculus CF1 albino (mouse) assessed as protection against electrically-induced seizure at 100 mg/kg, ip measured at 0.5 hr by 6Hz psychomotor seizure test; assay type: functional, organism-based; parameters: dose 100 mg/kg
# [28] = system: Mus musculus; experiment: Anticonvulsant activity in Mus musculus CF1 albino (mouse) assessed as protection against maximal electroshock-induced seizures at 100 mg/kg, ip measured at 4 hr; assay type: functional, organism-based; parameters: dose 100 mg/kg
# [29] = Neurotoxicity in ip dosed Mus musculus CF1 albino (mouse) assessed as minimal motor impairment measured at 0.25 hr by rotorod test; assay type: toxicity, organism-based; settings: in vivo
# [30] = Protective index, ratio of TD50 for neurotoxicity in ip dosed Mus musculus CF1 albino (mouse) to ED50 for protection against electrically-induced seizure by 6Hz psychomotor seizure test in ip dosed Mus musculus CF1 albino (mouse); assay type: toxicity, organism-based; settings: in vivo, read-out: Ratio TD50/ED50
SMILES,Activity [1],Activity [2],Activity [5],ED50 [6],Activity [7],Activity [9],Activity [10],Activity [11],Activity [12],Activity [13],Activity [14],Activity [15],ED50 [16],Activity [17],Activity [18],Activity [19],Activity [20],Activity [21],Activity [22],Activity [23],further results
COc1ccc(-c2nc(-c3ccccc3)c[nH]2)cc1,Active,inactive,Non-toxic,46.8 mg/kg,Active,Toxic,Non-toxic,Toxic,inactive,inactive,inactive,Non-toxic,142 mg/kg,Active,inactive,Non-toxic,inactive,inactive,Active,inactive,selectivity ratio [3]: 4.3; selectivity ratio [4]: 1.4; Activity [8]: inactive
c1ccc(-c2c[nH]c(-c3ccccc3)n2)cc1,Active,inactive,Non-toxic,61.7 mg/kg,inactive,Toxic,Non-toxic,,inactive,inactive,inactive,,161 mg/kg,Active,Active,Non-toxic,inactive,inactive,Active,inactive,Activity [24]: Active; ED50 [25]: 47.2 mg/kg; Activity [26]: Active; Activity [8]: inactive; Activity [27]: Active; Activity [28]: inactive
Cc1ccc(-c2nc(-c3ccccc3)c[nH]2)cc1,Active,inactive,Non-toxic,,inactive,Non-toxic,Non-toxic,Non-toxic,inactive,inactive,inactive,Non-toxic,,Active,inactive,Non-toxic,inactive,inactive,,inactive,ED50 [25]: 62.4 mg/kg; TD50 at 0.25 h [29]: 188 mg/kg; selectivity ratio [30]: 3; Activity [28]: inactive
COc1ccc(-c2nc(-c3cccc(Cl)c3)c[nH]2)cc1,Active,inactive,Non-toxic,82.1 mg/kg,inactive,Non-toxic,Non-toxic,Non-toxic,inactive,inactive,inactive,Non-toxic,103 mg/kg,Active,inactive,Non-toxic,inactive,inactive,inactive,inactive,selectivity ratio [3]: 4.7; selectivity ratio [4]: 3.8; Activity [26]: inactive; TD50 at 0.25 h [29]: 390 mg/kg
FC(F)(F)Oc1ccc(-c2nc(-c3ccccc3)c[nH]2)cc1,Active,,Non-toxic,,Active,Toxic,Non-toxic,Non-toxic,inactive,inactive,inactive,Non-toxic,,Active,inactive,Non-toxic,inactive,inactive,inactive,inactive,Activity [24]: Active; ED50 [25]: 28.2 mg/kg; Activity [26]: Active; Activity [27]: Active; TD50 at 0.25 h [29]: 136 mg/kg; selectivity ratio [30]: 4.8
COc1ccc(-c2nc(-c3ccc(Cl)cc3)c[nH]2)cc1,Active,inactive,Non-toxic,68.8 mg/kg,inactive,Non-toxic,Non-toxic,Non-toxic,inactive,inactive,inactive,Non-toxic,158 mg/kg,Active,inactive,Non-toxic,inactive,inactive,,inactive,selectivity ratio [3]: 3.5; selectivity ratio [4]: 1.5; Activity [8]: inactive; TD50 at 0.25 h [29]: 238 mg/kg; Activity [28]: Active

# — ChEMBL document CHEMBL3045552, “In vivo screening of diarylimidazoles as anticonvulsant agents” (Med Chem Res, 2012)
